Legend:
[1] = molecular target: T1, PDE4B1 (Homo sapiens, UniProt Q07343); assay: IMAP FP PDE assay, % inhibition at […]; type: biochemical; settings: read-out: PDE4B1 ^a
T1 construct: gene PDE4B; isoform PDE4B1, human recombinant

[2] = molecular target: T2, PDE4A1A (Homo sapiens, UniProt P27815); assay: IMAP FP PDE assay, % inhibition at […]; type: biochemical
T2 construct: gene PDE4A; isoform PDE4A1A, human recombinant

[3] = molecular target: T3, PDE4D3 (Homo sapiens, UniProt Q08499); assay: IMAP FP PDE assay, % inhibition at […]; type: biochemical
T3 construct: gene PDE4D; isoform PDE4D3, human recombinant
T3 sequence (Q08499 153-809): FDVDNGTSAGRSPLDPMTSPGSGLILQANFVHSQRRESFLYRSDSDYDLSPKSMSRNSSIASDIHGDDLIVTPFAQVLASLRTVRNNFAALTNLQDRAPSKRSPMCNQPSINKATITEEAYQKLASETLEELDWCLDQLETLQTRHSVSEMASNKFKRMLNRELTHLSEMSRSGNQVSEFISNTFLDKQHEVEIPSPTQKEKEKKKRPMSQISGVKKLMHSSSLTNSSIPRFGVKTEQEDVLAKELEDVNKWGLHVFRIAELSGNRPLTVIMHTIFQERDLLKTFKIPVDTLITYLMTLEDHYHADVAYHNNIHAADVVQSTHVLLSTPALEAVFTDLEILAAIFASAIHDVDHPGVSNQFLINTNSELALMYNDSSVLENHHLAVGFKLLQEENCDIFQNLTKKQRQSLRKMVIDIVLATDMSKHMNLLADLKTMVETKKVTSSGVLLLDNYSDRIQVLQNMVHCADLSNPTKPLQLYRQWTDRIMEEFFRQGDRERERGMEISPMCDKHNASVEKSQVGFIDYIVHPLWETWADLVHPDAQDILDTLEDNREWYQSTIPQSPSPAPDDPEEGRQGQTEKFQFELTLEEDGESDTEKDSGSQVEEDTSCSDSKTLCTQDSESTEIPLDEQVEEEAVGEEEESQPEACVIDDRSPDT

[4] = molecular target: T2, PDE4A1A; assay: IMAP FP PDE assay (FAM-cAMP), concentration-response; type: biochemical
[5] = molecular target: T4, adenosine A2A receptor (Homo sapiens, UniProt P29274); assay: radioligand displacement with [3H]-CGS21680; type: binding
T4 construct: gene ADORA2A; human recombinant, expressed in HEK 293 cells
T4 sequence (P29274 whole entry): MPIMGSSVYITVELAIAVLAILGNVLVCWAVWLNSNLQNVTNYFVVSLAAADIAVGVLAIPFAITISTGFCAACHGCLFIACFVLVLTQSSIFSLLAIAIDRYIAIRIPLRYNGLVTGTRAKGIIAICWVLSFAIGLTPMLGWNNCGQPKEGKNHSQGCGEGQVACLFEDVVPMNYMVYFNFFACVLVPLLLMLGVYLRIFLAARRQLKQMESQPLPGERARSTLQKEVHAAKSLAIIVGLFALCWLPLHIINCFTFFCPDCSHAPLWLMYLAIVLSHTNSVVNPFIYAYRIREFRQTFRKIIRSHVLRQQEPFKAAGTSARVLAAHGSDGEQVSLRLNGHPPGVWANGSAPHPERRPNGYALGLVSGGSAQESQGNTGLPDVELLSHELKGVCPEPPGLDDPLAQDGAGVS

T2 sequence (P27815 265-886 limits assumed): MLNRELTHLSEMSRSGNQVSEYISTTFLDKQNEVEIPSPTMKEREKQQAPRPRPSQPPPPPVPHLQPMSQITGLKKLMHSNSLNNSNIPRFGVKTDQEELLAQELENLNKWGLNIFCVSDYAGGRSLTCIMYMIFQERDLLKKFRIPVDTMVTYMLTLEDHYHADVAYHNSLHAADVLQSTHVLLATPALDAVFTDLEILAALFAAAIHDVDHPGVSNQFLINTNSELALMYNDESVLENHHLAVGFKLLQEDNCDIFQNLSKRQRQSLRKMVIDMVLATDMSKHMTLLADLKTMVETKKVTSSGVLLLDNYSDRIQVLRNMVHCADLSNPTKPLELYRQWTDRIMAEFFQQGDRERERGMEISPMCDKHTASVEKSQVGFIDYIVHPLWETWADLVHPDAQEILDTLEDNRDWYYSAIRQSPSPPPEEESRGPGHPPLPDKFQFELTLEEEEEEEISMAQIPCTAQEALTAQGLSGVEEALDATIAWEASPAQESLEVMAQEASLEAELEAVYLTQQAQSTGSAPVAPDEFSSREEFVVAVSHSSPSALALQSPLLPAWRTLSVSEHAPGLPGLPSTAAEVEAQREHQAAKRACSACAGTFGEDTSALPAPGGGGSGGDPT
T1 sequence (Q07343 whole entry, canonical isoform): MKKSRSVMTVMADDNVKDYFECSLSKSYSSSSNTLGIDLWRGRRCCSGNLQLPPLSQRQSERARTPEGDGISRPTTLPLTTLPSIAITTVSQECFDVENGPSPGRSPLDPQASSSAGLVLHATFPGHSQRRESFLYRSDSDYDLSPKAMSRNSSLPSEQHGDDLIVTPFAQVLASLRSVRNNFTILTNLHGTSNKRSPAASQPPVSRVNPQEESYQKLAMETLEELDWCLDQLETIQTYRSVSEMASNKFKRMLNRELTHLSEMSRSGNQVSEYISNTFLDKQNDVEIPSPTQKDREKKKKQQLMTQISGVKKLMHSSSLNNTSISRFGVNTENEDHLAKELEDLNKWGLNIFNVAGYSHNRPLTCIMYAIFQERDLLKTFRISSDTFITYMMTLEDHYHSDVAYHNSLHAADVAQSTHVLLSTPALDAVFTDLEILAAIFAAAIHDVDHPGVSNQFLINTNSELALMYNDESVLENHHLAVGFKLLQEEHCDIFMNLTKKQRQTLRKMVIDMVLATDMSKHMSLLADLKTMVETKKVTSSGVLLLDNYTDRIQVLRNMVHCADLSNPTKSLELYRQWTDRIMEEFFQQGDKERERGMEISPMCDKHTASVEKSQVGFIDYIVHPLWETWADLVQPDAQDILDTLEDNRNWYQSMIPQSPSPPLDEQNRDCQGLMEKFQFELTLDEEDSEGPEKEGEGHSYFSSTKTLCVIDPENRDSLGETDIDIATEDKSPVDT

inhibition at 10 µM [2] [%] | SMILES | inhibition at 10 µM [1] [%] | inhibition at 10 µM [3] [%] | IC50 [4] [nM] | Ki [5] [nM]
53 | COc1ccc(/C=N/NC(=O)c2cccs2)cc1OC [compound 3, LASSBio-1834] | 48 |  |  | 
 | COc1ccc(/C=N/N(C)C(=O)c2cccs2)cc1OC [compound 4, LASSBio-1835] | 44 | 40 | 1080 | 1500

Reference: publication PMC6316713, “Design, Synthesis, Experimental and Theoretical Characterization of a New Multitarget 2-Thienyl-N-Acylhydrazone Derivative” (Pharmaceuticals, 2018)
